From US6399583B1, “Hybrid anthracyclines from genetically engineered streptomyces galilaeus strains, process for production and uses thereof” (Galilaeus Oy, priority 1998, dated 2002)

Assays:
[1] = system: MES-SA human uterine sarcoma cells; assay: Cytotoxicity assay, luminescence ATP detection, MES-SA; assay type: cell-based; details: three days incubation, ATP content, highest concentration 10^-5 M, read-out: ED50 (nM) MES-SA
Protocol: (§1) The cytotoxicities of the new anthracyclines were tested in vitro with two cell lines: human uterine sarcomas MES-SA (CRL-1976; American Type Culture Collection (ATCC), Rockville, Md., USA) and MES-SA/D×5 (CRL-1977; ATCC, Rockville, Md., USA). MES-SA/D×5 has been developed by growing MES-SA cells in increasing concentrations of doxorubicin (Harker and Sikic, 1985).
(§2) Monolayer cultures were grown in McCoy's 5A medium with L-glutamine (Gibco BRL) supplemented with 10% FBS (Foetal Bovine Serum, Gibco BRL). No antibiotics were added. As the resistance is stable for at least 20 passages, the MES-SA/D×5 cells were grown without anthracycline selection (Harker and Sikic, 1985). Cells were maintained at 37° C. with 5% CO2 and subcultured every 3-5 days.
(§3) The cytotoxicity tests were performed in 96-well microtiter plates (sterile white plates with clear bottom, Corning Costar Corporation, Cambridge, Mass., USA). The anthracyclines were pipetted into the plates in 10 μl of ethanol, pure ethanol was used for control plates. Daunorubicin and aclarubicin were used as positive controls. When the ethanol had evaporated, the cells were seeded into the plates in 100 μl of appropriate medium. The number of cells seeded per well was 2500 with MES-SA, 3000 with MES-SA/D×5, 3000 with LL/2, 2000 with B16-F0 and B16-F1, 2000 with KLN-205 and 8000 with MLTC-1. The ATP content of the cells was measured after incubating the cells for three days at 37° C. with 5% CO2.
(§4) The growth medium was removed by turning the plates over, and 200 μl of ATP extraction reagent, Somalyze, were added to the wells. The plates were then incubated for 30 minutes at room temperature. The ATP measurement was performed with Luminoskan luminometer (Labsystems Oy, Helsinki, Finland) at 22° C. 20 μl of ATP monitoring reagent containing luciferin and luciferase was dispensed, and an integral measurement of 10 s with 2 s lag time was performed for each well. All reagents used were supplied by Bio-Orbit Oy, Turku, Finland.
(§5) The direct luminometer output (in relative light units, RLUS) was used to calculate the cytotoxic effect. This light signal is directly proportional to the amount of […] in a wide range (determined with Bio-Orbit ATP standard, data not shown). On the other hand, the amount of ATP is directly proportional to the amount of living cells (Kangas et al., 1984). The results are expressed as percentages of the control value of untreated cells. An IC50 value (the drug concentration resulting to an ATP signal of 50% of the untreated control signal) was graphically estimated from the % of control vs. drug concentration plot.

[2] = system: MES-SA/D×5 uterine sarcoma cells (doxorubicin-resistant, MDR); assay: Cytotoxicity assay, luminescence ATP detection, MES-SA/D×5; assay type: cell-based, human; details: MES-SA/D×5 cells, three days incubation, ATP content; highest concentration 10^-5 M; read-out: ED50 (nM) MES-SA/D × 5
Protocol: as §1, §2, §3, §4, §5

B16-F0 melanoma = assay: Cytotoxicity assay, ATP detection, B16-F0; assay type: cell-based, mouse; details: B16-F0 cells in vitro; read-out: ED50 B16-F0
Protocol: as §3, §4, §5
(§6) H075-4a was also tested with several mouse cell lines in vitro (all were purchased from ATCC, Rockville, Md., USA): Lewis lung carcinoma (LL/2) (CRL-1642), B16-F0 melanoma (CRL-6322), B16-F1 melanoma (CRL-6323), KLN-205 lung squamous cell carcinoma (CRL-1453) and MLTC-1 leydig cell tumor (CRL-2065) using daunomycin, aclarubicin and H075-1a (MA 144U1) as references.
(§7) All cells grew as monolayers and were cultured at 37° C. with 5% CO2 according to ATCC standard instructions for each cell line: LL/2 in Dulbecco's modified Eagle's medium with 4.5 g/l glucose and 10% FCS, B16-F0 and B16-F1 in MEM (Eagle) in Earle's BSS with non-essential amino acids and 10% FCS, KLN-205 in MEM (Eagle) in Earle's BSS with non-essential amino acids and 10% FCS, MLTC-1 in RPMI 1640 with 25 mM HEPES and 10% FBS. All media were purchased from Gibco BRL, the serum was Gibco BRL Foetal Bovine Serum. […]

B16-F1 melanoma = assay: Cytotoxicity assay, ATP detection, B16-F1; assay type: cell-based, mouse; details: B16-F1 cells in vitro; read-out: ED50 B16-F1
Protocol: as §3, §4, §5, §6, §7

[3] = system: KLN-205 lung squamous cell carcinoma; assay: Cytotoxicity assay, ATP detection, KLN-205; assay type: cell-based, mouse; details: KLN-205 cells in vitro; read-out: ED50 KLN-205
Protocol: as §3, §4, §5, §6, §7

[4] = system: Lewis lung carcinoma (LL/2); assay: Cytotoxicity assay, ATP detection, LL/2; assay type: cell-based, mouse; details: LL/2 cells in vitro; read-out: ED50 LL/2
Protocol: as §3, §4, §5, §6, §7

MLTC-1 leydig cell tumor = assay: Cytotoxicity assay, ATP detection, MLTC-1; assay type: cell-based, mouse; details: MLTC-1 cells in vitro; read-out: ED50 MLTC-1
Protocol: as §3, §4, §5, §6, §7

SK-N-MC = assay: Cytotoxicity assay, ATP detection, SK-N-MC; assay type: cell-based; details: SK-N-MC cells in vitro; read-out: ED50 SK-N-MC
P388 leukemia = assay: Cytotoxic activity in vivo: P388 leukemia model; design: species or system mice; details: 10^6 P388 cells i.p. day 0
Source text: P388 leukemia was maintained by serial intraperitoneal (i.p.) transplantations in DBA/2JBom female mice purchased from M & B A/S, Ry, Denmark. The animals were maintained at the facilities of Central Animal Laboratory, University of Turku. The management of the animal unit is based on and followed the guidelines: “European Convention for the protection of Vertebrate Animals used for Experimental and other Scientific Purposes, European Treaty Series No. 123 (EU No. 609/86), Official Journal of European Communities No. L 358, Strasbourg Nov. 24, 1986”, and “The Statute No. 1360/90 of the Finnish Law, Helsinki Dec. 21, 1990: Asetus kokeellisiin ja muihin tieteellisiin tarkoituksiin käytettävien selkärankaisten eläinten suojelemiseksi tehdyn eurooppalaisen yleissopimuksen voimaansaattamisesta. Suomen s{umlaut over (aa)}doskokoelma.”
The in vivo tests were started by injecting 10^6 P388 cells suspended in Dulbecco's phosphate buffered saline i.p. in mice on day 0. Groups of 3 mice were used. The drugs were administered i.p. on day 1 on the basis of individual body weight. The control group received vehicle (10% ethanol in Dulbecco's phosphate buffered saline).

For `CCC1(O)CC(OC2CC(N(C)C)C(OC3CC(O)C(OC4CC(O)C(O)C(C)O4)C(C)O3)C(C)O2)c2c(cc3c(c2O)C(=O)c2c(O)cccc2C3=O)C1C(=O)OC` (stereo not drawn) [Akv-Rhn-dF-dF, aklavinone-rhodosamine-2-deoxyfucose-2-deoxyfucose], the EC50 [1] was 6 nM, the EC50 [2] was 540 nM and the EC50 (B16-F0 melanoma) was 14 nM. The EC50 (B16-F1 melanoma) was 12 nM, the EC50 [3] was 90 nM and the EC50 [4] was 38 nM. For the same molecule, the EC50 (MLTC-1 leydig cell tumor) was 600 nM and the EC50 (SK-N-MC) was 30 nM.

`CCC1(O)CC(OC2CC(N(C)C)C(OC3CC(O)C(OC4CC(O)C(O)C(C)O4)C(C)O3)C(C)O2)c2c(cc3c(c2O)C(=O)c2c(O)cccc2C3=O)C1O` (stereo not drawn) [Compound H075-2a] gave an EC50 [1] of 3200 nM and an EC50 [2] of over 10000 nM.

In the case of `CCC1(O)CC(OC2CC(N(C)C)C(OC3CC(O)C(O)C(C)O3)C(C)O2)c2c(cc3c(c2O)C(=O)c2c(O)cccc2C3=O)C1O` (stereo not drawn) [Compound H075-2b], the EC50 [1] is reported as 400 nM and the EC50 [2] is reported as over 10000 nM.

Work on `CCC1(O)CC(OC2CC(O)C(OC3CC(O)C(OC4CC(O)C(O)C(C)O4)C(C)O3)C(C)O2)c2c(cc3c(c2O)C(=O)c2c(O)cccc2C3=O)C1O` (stereo not drawn) [Compound H075-2d] yielded an EC50 [1] of over 10000 nM and an EC50 [2] of over 10000 nM.

`COC(=O)C1c2cc3c(c(O)c2C(OC2CC(O)C(OC4CC(O)C(OC5CC(O)C(O)C(C)O5)C(C)O4)C(C)O2)CC1(C)O)C(=O)c1c(O)cccc1C3=O` (stereo not drawn) [Compound H075-3d] was tested, and the EC50 [1] was over 10000 nM and the EC50 [2] was over 10000 nM.

For `COC(=O)C1c2c(O)c3c(c(O)c2C(OC2CC(O)C(OC4CC(O)C(O)C(C)O4)C(C)O2)CC1(C)O)C(=O)c1c(O)cccc1C3=O` (stereo not drawn) [Compound H075-5e], the EC50 [1] was 5200 nM and the EC50 [2] was over 10000 nM.

`CC1OC(OC2C(C)OC(OC3CC(C)(O)C(O)c4cc5c(c(O)c43)C(=O)c3c(O)cccc3C5=O)CC2N(C)C)CC(O)C1O` (stereo not drawn) [Compound H075-6b] showed an EC50 [1] of 200 nM and an EC50 [2] of over 10000 nM.

Work on `CC1OC(OC2CC(C)(O)C(O)c3cc4c(c(O)c32)C(=O)c2c(O)cccc2C4=O)CC(N(C)C)C1O` (stereo not drawn) [Compound H075-6c] yielded an EC50 [1] of 4200 nM and an EC50 [2] of over 10000 nM.

Molecule `CCC1(O)Cc2cc3c(c(O)c2C(OC2CC(N(C)C)C(OC4CC(O)C(OC5CC(O)C(O)C(C)O5)C(C)O4)C(C)O2)C1)C(=O)c1c(O)cccc1C3=O` (stereo not drawn) [Compound H075-8a] has an EC50 [1] of 130 nM and an EC50 [2] of over 10000 nM.

In the case of `CCC1(O)CC(OC2CC(N(C)C)C(OC3CC(O)C(OC4CC(O)C(O)C(C)O4)C(C)O3)C(C)O2)c2c(O)c3c(c(O)c2C1O)C(=O)c1cccc(O)c1C3=O` (stereo not drawn) [Compound H075-10a], the EC50 [1] is reported as 30 nM, the EC50 [2] is reported as 1300 nM and the “Median survival days (range)” value (P388 leukemia; 4 mg/kg i.p. on day 1) is reported as 15 (14-17) days. For the same molecule, the “Median survival days (range)” value (P388 leukemia; 8 mg/kg i.p. on day 1) was 14 (13-15) days and the “Median survival days (range)” value (P388 leukemia; 16 mg/kg i.p. on day 1) was 14 (14-15) days.

With `CC1OC(OC2C(C)OC(OC3CC(C)(O)C(O)c4c(O)c5c(c(O)c43)C(=O)c3c(O)cccc3C5=O)CC2N(C)C)CC(O)C1O` (stereo not drawn) [Compound H075-11b] the EC50 [1] was 60 nM, the EC50 [2] was 3500 nM and the “Median survival days (range)” value (P388 leukemia; 4 mg/kg i.p. on day 1) was 13 (12-13) days. The “Median survival days (range)” value (P388 leukemia; 8 mg/kg i.p. on day 1) was 14 (13-15) days and the “Median survival days (range)” value (P388 leukemia; 16 mg/kg i.p. on day 1) was 16 (15-19) days.

`CC1OC(OC2C(O)CC(OC3CC(C)(O)C(O)c4c(O)c5c(c(O)c43)C(=O)c3c(O)cccc3C5=O)OC2C)CC(O)C1O` (stereo not drawn) [Compound H075-11e] gave an EC50 [1] of 800 nM and an EC50 [2] of over 10000 nM.
